Source: ChEMBL document CHEMBL5303573, “Mapping human microbiome drug metabolism by gut bacteria and their genes” (Nature, 2019)

Experiments:
[1] = The drug is tested on Bifidobacterium longum subsp. Infantis strain: CCUG52486 for biotransformation. The drug concentrations were measured before and after a 12-h incubation by liquid-chromatography-coupled mass spectrometry (LC–MS); details: 2 µM
[2] = The drug is tested on Bifidobacterium ruminantium strain: fecal isolate for biotransformation. The drug concentrations were measured before and after a 12-h incubation by liquid-chromatography-coupled mass spectrometry (LC–MS); details: 2 µM
[3] = The drug is tested on Collinsella aerofaciens strain: ATCC25986 for biotransformation. The drug concentrations were measured before and after a 12-h incubation by liquid-chromatography-coupled mass spectrometry (LC–MS); details: 2 µM
[4] = The drug is tested on Bacteroides caccae strain: ATCC43185 for biotransformation. The drug concentrations were measured before and after a 12-h incubation by liquid-chromatography-coupled mass spectrometry (LC–MS); details: 2 µM
[5] = The drug is tested on Bacteroides vulgatus strain: ATCC8482 for biotransformation. The drug concentrations were measured before and after a 12-h incubation by liquid-chromatography-coupled mass spectrometry (LC–MS); details: phocaeicola vulgatus, 2 µM
[6] = The drug is tested on Anaerotruncus colihominis strain: DSM17241 for biotransformation. The drug concentrations were measured before and after a 12-h incubation by liquid-chromatography-coupled mass spectrometry (LC–MS); details: 2 µM
[7] = The drug is tested on Clostridium scindens strain: ATCC35704 for biotransformation. The drug concentrations were measured before and after a 12-h incubation by liquid-chromatography-coupled mass spectrometry (LC–MS); details: 2 µM
[8] = The drug is tested on Dorea formicigenerans strain: ATCC27755 for biotransformation. The drug concentrations were measured before and after a 12-h incubation by liquid-chromatography-coupled mass spectrometry (LC–MS); details: 2 µM
[9] = The drug is tested on Ruminococcus gnavus strain: ATCC29149 for biotransformation. The drug concentrations were measured before and after a 12-h incubation by liquid-chromatography-coupled mass spectrometry (LC–MS); details: mediterraneibacter gnavus, 2 µM
[10] = The drug is tested on Ruminococcus lactaris strain: ATCC29176 for biotransformation. The drug concentrations were measured before and after a 12-h incubation by liquid-chromatography-coupled mass spectrometry (LC–MS); details: 2 µM
[11] = The drug is tested on Ruminococcus torques strain: ATCC27756 for biotransformation. The drug concentrations were measured before and after a 12-h incubation by liquid-chromatography-coupled mass spectrometry (LC–MS); assay type: ADME; parameters: dose 2 uM, timepoint 0 vs 12 hours; details: 2 µM
[12] = bifidobacterium adolescentis, 12 h, 2 µM
Description: The drug is tested on Bifidobacterium adolescentis strain: ATCC 15703 for biotransformation. The drug concentrations were measured before and after a 12-h incubation by liquid-chromatography-coupled mass spectrometry (LC–MS)

[13] = bacteroides fragilis, 12 h, 2 µM
Description: The drug is tested on Bacteroides fragilis strain: DS-208 for biotransformation. The drug concentrations were measured before and after a 12-h incubation by liquid-chromatography-coupled mass spectrometry (LC–MS)

[14] = bacteroides intestinalis, 12 h, 2 µM
Description: The drug is tested on Bacteroides intestinalis strain: DSM17393 for biotransformation. The drug concentrations were measured before and after a 12-h incubation by liquid-chromatography-coupled mass spectrometry (LC–MS)

[15] = bacteroides thetaiotaomicron, 12 h, 2 µM
Description: The drug is tested on Bacteroides thetaiotaomicron strain: VPI-5482 for biotransformation. The drug concentrations were measured before and after a 12-h incubation by liquid-chromatography-coupled mass spectrometry (LC–MS)

[16] = anaerostipes sp., 12 h, 2 µM
Description: The drug is tested on Anaerostipes sp. strain: fecal isolate for biotransformation. The drug concentrations were measured before and after a 12-h incubation by liquid-chromatography-coupled mass spectrometry (LC–MS)

[17] = The drug is tested on Parabacteroides merdae strain: ATCC43184 for biotransformation. The drug concentrations were measured before and after a 12-h incubation by liquid-chromatography-coupled mass spectrometry (LC–MS); details: 2 µM
[18] = The drug is tested on Clostridium sp. strain: fecal isolate for biotransformation. The drug concentrations were measured before and after a 12-h incubation by liquid-chromatography-coupled mass spectrometry (LC–MS); details: 2 µM
[19] = parabacteroides johnsonii, 12 h, 2 µM
Description: The drug is tested on Parabacteroides johnsonii strain: DSM18315 for biotransformation. The drug concentrations were measured before and after a 12-h incubation by liquid-chromatography-coupled mass spectrometry (LC–MS)

Structure (SMILES)	Bacterial Biotransformation [1]	Bacterial Biotransformation [2]	Bacterial Biotransformation [3]	Bacterial Biotransformation [4]	Bacterial Biotransformation [5]	Bacterial Biotransformation [6]	Bacterial Biotransformation [7]	Bacterial Biotransformation [8]	Bacterial Biotransformation [9]	Bacterial Biotransformation [10]	Bacterial Biotransformation [11]	Bacterial Biotransformation [12]	Bacterial Biotransformation [13]	Bacterial Biotransformation [14]	Bacterial Biotransformation [15]	Bacterial Biotransformation [16]	Bacterial Biotransformation [17]	Bacterial Biotransformation [18]	Bacterial Biotransformation [19]
CCN(CC)CCNC(C(=O)OCCC(C)C)c1ccccc1.Cl.Cl (stereo not drawn)	Compound NOT metabolized	Compound NOT metabolized	Compound NOT metabolized	Compound NOT metabolized	Compound NOT metabolized	Compound NOT metabolized	Compound NOT metabolized	Compound NOT metabolized	Compound NOT metabolized	Compound NOT metabolized	Compound NOT metabolized	Compound NOT metabolized	Compound NOT metabolized	Compound NOT metabolized	Compound NOT metabolized	Compound NOT metabolized			
O=C1CC2(CCCC2)CC(=O)N1CCCCN1CCN(c2ncccn2)CC1 [BUSPIRONE]	Compound NOT metabolized		Compound NOT metabolized	Compound NOT metabolized		Compound NOT metabolized	Compound NOT metabolized	Compound NOT metabolized	Compound NOT metabolized	Compound NOT metabolized	Compound NOT metabolized	Compound NOT metabolized	Compound NOT metabolized	Compound NOT metabolized	Compound NOT metabolized	Compound NOT metabolized	Compound NOT metabolized	Compound NOT metabolized	Compound NOT metabolized
CN[C@H]1CC[C@@H](c2ccc(Cl)c(Cl)c2)c2ccccc21 [SERTRALINE]	Compound NOT metabolized	Compound NOT metabolized	Compound NOT metabolized	Compound NOT metabolized	Compound NOT metabolized	Compound NOT metabolized	Compound NOT metabolized	Compound NOT metabolized	Compound NOT metabolized	Compound NOT metabolized	Compound NOT metabolized	Compound NOT metabolized	Compound NOT metabolized	Compound NOT metabolized	Compound NOT metabolized	Compound NOT metabolized	Compound NOT metabolized		Compound NOT metabolized
O=c1n(CCCN2CCN(c3cccc(Cl)c3)CC2)nc2ccccn12 [TRAZODONE]	Compound NOT metabolized	Compound NOT metabolized	Compound NOT metabolized	Compound NOT metabolized	Compound NOT metabolized	Compound NOT metabolized	Compound NOT metabolized	Compound NOT metabolized		Compound NOT metabolized	Compound NOT metabolized	Compound NOT metabolized	Compound NOT metabolized	Compound NOT metabolized	Compound NOT metabolized	Compound NOT metabolized	Compound NOT metabolized		Compound NOT metabolized
CCN1CCCC1CNC(=O)c1cc(S(N)(=O)=O)ccc1OC (stereo not drawn) [SULPIRIDE]	Compound NOT metabolized		Compound NOT metabolized	Compound NOT metabolized	Compound NOT metabolized	Compound NOT metabolized	Compound NOT metabolized	Compound NOT metabolized	Compound NOT metabolized	Compound NOT metabolized	Compound NOT metabolized	Compound NOT metabolized		Compound NOT metabolized		Compound NOT metabolized	Compound NOT metabolized	Compound NOT metabolized	Compound NOT metabolized
CNNCc1ccc(C(=O)NC(C)C)cc1 [PROCARBAZINE]	Compound NOT metabolized		Compound NOT metabolized	Compound NOT metabolized	Compound NOT metabolized	Compound NOT metabolized	Compound NOT metabolized	Compound NOT metabolized	Compound NOT metabolized	Compound NOT metabolized	Compound NOT metabolized	Compound NOT metabolized			Compound NOT metabolized	Compound NOT metabolized	Compound NOT metabolized	Compound NOT metabolized	Compound metabolized
N=C(N)NC(=O)Cc1c(Cl)cccc1Cl [GUANFACINE]	Compound NOT metabolized	Compound NOT metabolized	Compound NOT metabolized	Compound NOT metabolized	Compound NOT metabolized	Compound NOT metabolized		Compound NOT metabolized	Compound NOT metabolized	Compound NOT metabolized	Compound NOT metabolized	Compound NOT metabolized	Compound NOT metabolized	Compound NOT metabolized	Compound NOT metabolized	Compound NOT metabolized	Compound NOT metabolized		Compound NOT metabolized
Cc1cn([C@H]2C[C@H](N=[N+]=[N-])[C@@H](CO)O2)c(=O)[nH]c1=O [ZIDOVUDINE]	Compound NOT metabolized			Compound NOT metabolized	Compound metabolized		Compound NOT metabolized			Compound NOT metabolized	Compound NOT metabolized	Compound NOT metabolized		Compound NOT metabolized	Compound NOT metabolized		Compound NOT metabolized		Compound metabolized
